The values that follow come from ChEMBL document CHEMBL1201862, “PubChem BioAssay data set” (2004).

Usually EC50 stands for the concentration needed to bring the measured effect to its halfway point.

Test [1] concerns the target T1, Dual specificity protein phosphatase 3 (Homo sapiens, UniProt P51452). In words: VHR1 phosphatase inhibitors, primary screen, biochemical, absorbance, uHTS (AID 1654).
Test [2] has as its target T1, Dual specificity protein phosphatase 3. Nature of the test: VHR1 phosphatase inhibitors, biochemical (AID 1878).
Test [3] deals with T2, Calpain-2 catalytic subunit (Sus scrofa, UniProt P43367).
T2 sequence (P43367 whole entry): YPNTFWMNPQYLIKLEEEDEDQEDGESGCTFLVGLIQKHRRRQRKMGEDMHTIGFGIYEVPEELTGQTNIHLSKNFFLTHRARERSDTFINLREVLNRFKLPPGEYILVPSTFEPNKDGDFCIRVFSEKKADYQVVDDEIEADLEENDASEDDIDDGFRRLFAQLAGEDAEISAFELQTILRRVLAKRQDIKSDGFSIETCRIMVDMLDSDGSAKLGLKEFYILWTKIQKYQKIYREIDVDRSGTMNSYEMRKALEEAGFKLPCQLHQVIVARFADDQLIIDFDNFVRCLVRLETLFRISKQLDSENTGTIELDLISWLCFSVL
In words: m-calpain protease blockers, concentration series – biochemical, fluorogenic peptide substrate, dose response (AID 1420). It is filed as functional.

Test [4] deals with Dual specificity protein phosphatase 6 (Rattus norvegicus, UniProt Q64346). In words: inhibition of rat DUSP6 enzyme activity – biochemical, in vitro, primary screen (AID 425).
Test [5] can be described thus: antiviral protection against BTV-induced cell death – arbovirus, BSR cells, confirmation (AID 1250).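 Further: protection from viral cytopathic effect measured as cell viability by ATP luminescence.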 It is filed as functional.
In test [6] the target is Eukaryotic translation initiation factor 4E (Mus musculus, UniProt P63073). In words: blockers of eIF4G binding by eIF4E – biochemical, TR-FRET, dose response (AID 855).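 Further: potency for disrupting eIF4E binding to eIF4GI seen as loss of FRET.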 It is filed as functional.
For test [7], the target named is T3, Small ubiquitin-related modifier 1 (Homo sapiens, UniProt P63165). Nature of the test: SUMO1 protein interaction blockers, potency – biochemical, fluorescence polarization, uHTS hits, dose response (AID 624382). It is filed as functional. Particulars: read-out: IC50_Mean. In general terms: Fluorescence polarisation rises when a labelled molecule tumbles more slowly, as on binding a larger partner.

Test [8] concerns the target T3, Small ubiquitin-related modifier 1. Nature of the test: SUMO1 protein-protein binding blockers, potency – biochemical, FRET, dose response (AID 624383). Particulars: read-out: IC50_Mean. In kind it is functional.
The target of test [9] is T4, Kappa-type opioid receptor (Homo sapiens, UniProt P41145). Nature of the test: SAR analysis of small molecule agonists of the kappa opioid receptor via a luminescent beta-arrestin assay - Set 3. [Related pubchem assays (depositor defined):AID1777, AID1785, AID1786, AID1966, AID2133, AID2136, AID2284, AID2500]. In kind it is functional.
Test [10] deals with T5, G-protein coupled receptor 55 (Homo sapiens, UniProt Q9Y2T6). Nature of the test: inhibition of LPI-stimulated GPR55 beta-arrestin translocation – imaging, U2OS, beta-arrestin-GFP, LPI agonist, primary screen (AID 2013).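 Further: antagonist potency measured as reduced agonist-driven arrestin aggregation.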 In kind it is functional.
The target in test [11] is T6, Cannabinoid receptor 1 (Homo sapiens, UniProt P21554). Nature of the test: SAR analysis of antagonists of the Cannabinoid Receptor 1 using an Image-Based Assay - Set 2. [Related pubchem assays (depositor defined):AID2013, AID2026]. In kind it is functional.
Test [12] has as its target T7, G-protein coupled receptor 35 (Homo sapiens, UniProt Q9HC97). Nature of the test: SAR analysis of Agonists of the GPR35 Receptor using an Image-Based Assay - Set 2. [Related pubchem assays (depositor defined):AID2013, AID2026]. It is filed as functional.
Test [13] deals with T8, Cannabinoid receptor 2 (Homo sapiens, UniProt P34972). In words: SAR analysis of antagonists of the Cannabinoid Receptor 2 using an Image-Based Assay. [Related pubchem assays (depositor defined):AID2013, AID2026]. It is filed as functional.
Test [14] addresses T9, Short transient receptor potential channel 4 (Mus musculus, UniProt Q9QUQ5).
T9 sequence (Q9QUQ5 whole entry): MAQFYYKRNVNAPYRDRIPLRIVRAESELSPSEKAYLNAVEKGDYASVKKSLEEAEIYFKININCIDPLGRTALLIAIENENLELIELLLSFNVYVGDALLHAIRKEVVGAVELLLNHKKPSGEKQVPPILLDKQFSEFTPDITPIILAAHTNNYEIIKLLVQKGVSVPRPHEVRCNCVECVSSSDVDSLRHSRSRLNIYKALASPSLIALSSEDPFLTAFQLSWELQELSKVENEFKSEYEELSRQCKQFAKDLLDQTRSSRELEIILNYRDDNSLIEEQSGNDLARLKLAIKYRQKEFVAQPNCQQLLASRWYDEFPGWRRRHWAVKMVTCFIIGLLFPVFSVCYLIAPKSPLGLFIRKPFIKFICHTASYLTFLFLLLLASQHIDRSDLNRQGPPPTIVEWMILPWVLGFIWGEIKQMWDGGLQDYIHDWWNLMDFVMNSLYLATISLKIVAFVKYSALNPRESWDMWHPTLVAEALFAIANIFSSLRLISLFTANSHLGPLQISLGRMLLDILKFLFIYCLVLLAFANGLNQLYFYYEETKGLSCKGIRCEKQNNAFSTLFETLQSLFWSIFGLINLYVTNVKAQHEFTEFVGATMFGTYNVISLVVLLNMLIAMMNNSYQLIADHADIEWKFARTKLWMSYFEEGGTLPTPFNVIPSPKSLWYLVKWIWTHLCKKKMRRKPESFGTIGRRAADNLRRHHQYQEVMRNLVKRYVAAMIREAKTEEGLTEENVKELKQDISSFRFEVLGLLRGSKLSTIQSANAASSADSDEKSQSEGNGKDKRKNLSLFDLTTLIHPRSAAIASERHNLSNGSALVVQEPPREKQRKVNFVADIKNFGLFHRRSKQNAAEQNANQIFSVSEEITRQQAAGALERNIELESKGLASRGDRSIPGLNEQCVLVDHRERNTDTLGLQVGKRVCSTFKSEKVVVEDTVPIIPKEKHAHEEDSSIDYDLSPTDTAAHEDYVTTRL
In words: block of DAMGO-driven TRPC4 calcium entry – cell-based, HEK293 TRPC4/mu-opioid, Fluo-4 calcium, dose response (AID 434942).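 Further: potency of inhibitors blocking the TRPC4 calcium response.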 It is filed as functional.

The target in test [15] is T6, Cannabinoid receptor 1. In words: SAR analysis of agonists of the Cannabinoid Receptor 1 using an Image-Based Assay - Set 2. [Related pubchem assays (depositor defined):AID2013, AID2026]. It is filed as functional.
In test [16] the target is T7, G-protein coupled receptor 35. Nature of the test: SAR analysis of Antagonists of the GPR35 Receptor using an Image-Based Assay - Set 3. [Related pubchem assays (depositor defined):AID2013, AID2026]. In kind it is functional.
Test [17] has as its target T5, G-protein coupled receptor 55. Nature of the test: blockade of LPI-induced GPR55 arrestin translocation – imaging, U2OS, beta-arrestin-GFP, LPI agonist, set 2, SAR follow-up (AID 2820). It is filed as functional.
Test [18] has as its target T8, Cannabinoid receptor 2. Nature of the test: SAR analysis of agonists of the Cannabinoid Receptor 2 using an Image-Based Assay. [Related pubchem assays (depositor defined):AID2013, AID2026]. It is filed as functional.
The target of test [19] is T4, Kappa-type opioid receptor. Nature of the test: SAR analysis of small molecule agonists of the kappa opioid receptor via a luminescent beta-arrestin assay. [Related pubchem assays (depositor defined):AID1777, AID1786, AID1966, AID2133, AID2136, AID2348, AID2352, AID2357, AID2359, AID2370, AID2420, AID2478, AID2491, AID2492, AID2493, AID2497, AID2498, AID2500, AID449737, AID488822, AID488842]. It is filed as functional.

The target of test [20] is T10, Mu-type opioid receptor (Homo sapiens, UniProt P35372). In words: mu opioid receptor activators, image-based, SAR follow-up (AID 2352). It is filed as functional.
The target of test [21] is T11, Delta-type opioid receptor (Homo sapiens, UniProt P41143). Nature of the test: DOR agonists, SAR follow-up, image-based (AID 2370). In kind it is functional.
In test [22] the target is T4, Kappa-type opioid receptor. Nature of the test: kappa opioid receptor blockers, image-based, SAR follow-up (AID 2348). In kind it is functional.
Test [23] has as its target T10, Mu-type opioid receptor. Nature of the test: mu opioid receptor blockers – image-based, SAR follow-up (AID 2420).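 Further: compounds added before stimulation of receptor with agonist DAMGO.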 In kind it is functional.
In test [24] the target is T4, Kappa-type opioid receptor. In words: kappa opioid receptor activation potency – imaging, image-based, SAR follow-up (AID 2359). It is filed as functional.
Test [25] concerns the target T11, Delta-type opioid receptor. Nature of the test: delta opioid receptor blockers – image-based, SAR follow-up (AID 2357). In kind it is functional.
Test [26] is described as follows: luciferase reporter signal suppression in cells – H4 neuroglioma cells, luminescence, dose response (AID 1990). In kind it is functional, cell-based. On the technique in general: A reporter such as luciferase makes a cellular process visible.
A short description of test [27]: Luminescence Cell-Based Dose Response HTS to Identify Inhibitors of 5'UTR Stem-Loop Driven Prion Protein mRNA Translation in H4 Neuroglioblastoma Cells. [Related pubchem assays: 1827 (Project Summary), 1813 (Primary HTS)]. It is filed as functional.
The nature of test [28]: alpha-synuclein stem-loop luciferase translation blockers – H4 neuroglioma cells, luminescence, confirmation (AID 1988). It is filed as functional, cell-based.
Another test deals with Tumor necrosis factor (Homo sapiens, UniProt P01375). In words: analog potency on TNFa NF-kB signaling – cell-based, revised, SAR follow-up (AID 2337). It is filed as functional.
In test [29] the target is Nucleotide-binding oligomerization domain-containing protein 1 (Homo sapiens, UniProt Q9Y239). Nature of the test: blockers of NOD1 pathway activity – revised, SAR follow-up (AID 2333). It is filed as functional.
The test system of another test is HEK293. Nature of the test: cells. To be noted: Homo sapiens.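 Further: cells exposed to compound for 14 hours overnight before viability readout.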
In test [30] the target is Sphingosine 1-phosphate receptor 1 (Homo sapiens, UniProt P21453). Nature of the test: Fluorescence-based counterscreen assay for S1P4 agonists: Cell-based dose response high throughput screening assay to identify agonists of the Sphingosine 1-Phosphate Receptor 1 (S1P1). [Related pubchem assays (depositor defined):AID1509, AID1523, AID1801, AID463107, AID463118, AID463119, AID463122, AID463123, AID463129, AID463225, AID504400, AID504460]. It is filed as functional.

Test [31] deals with Sphingosine 1-phosphate receptor 4 (Homo sapiens, UniProt O95977). Nature of the test: Fluorescence dose response cell-based high throughput screening assay for agonists of the Sphingosine 1-Phosphate Receptor 4 (S1P4). [Related pubchem assays: 1509 (Primary screen.), 1523 (Confirmation screen in triplicates.)]. In kind it is functional.

Structures are written as SMILES. Active and inactive are the calls of the source.

T4 sequence (P41145 whole entry): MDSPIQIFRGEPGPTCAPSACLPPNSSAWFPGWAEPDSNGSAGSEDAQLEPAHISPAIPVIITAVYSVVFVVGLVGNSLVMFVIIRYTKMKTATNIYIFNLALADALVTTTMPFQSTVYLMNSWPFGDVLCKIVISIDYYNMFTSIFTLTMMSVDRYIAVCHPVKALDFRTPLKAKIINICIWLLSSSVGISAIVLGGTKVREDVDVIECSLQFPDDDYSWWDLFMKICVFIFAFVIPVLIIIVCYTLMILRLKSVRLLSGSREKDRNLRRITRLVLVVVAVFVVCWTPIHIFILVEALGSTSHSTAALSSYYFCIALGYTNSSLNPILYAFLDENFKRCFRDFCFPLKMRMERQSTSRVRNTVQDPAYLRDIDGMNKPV
T10 sequence (P35372 whole entry): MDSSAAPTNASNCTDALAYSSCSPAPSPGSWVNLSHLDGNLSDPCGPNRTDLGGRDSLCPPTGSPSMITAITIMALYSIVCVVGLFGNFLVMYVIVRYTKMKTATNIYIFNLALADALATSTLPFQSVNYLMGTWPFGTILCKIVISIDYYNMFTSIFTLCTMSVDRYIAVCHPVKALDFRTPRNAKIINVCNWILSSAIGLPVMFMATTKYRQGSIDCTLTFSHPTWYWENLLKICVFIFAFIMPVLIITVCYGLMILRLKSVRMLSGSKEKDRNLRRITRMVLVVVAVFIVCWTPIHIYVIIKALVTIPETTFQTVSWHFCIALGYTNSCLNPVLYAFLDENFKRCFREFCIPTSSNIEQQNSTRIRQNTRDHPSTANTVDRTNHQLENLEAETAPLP
T5 sequence (Q9Y2T6 whole entry): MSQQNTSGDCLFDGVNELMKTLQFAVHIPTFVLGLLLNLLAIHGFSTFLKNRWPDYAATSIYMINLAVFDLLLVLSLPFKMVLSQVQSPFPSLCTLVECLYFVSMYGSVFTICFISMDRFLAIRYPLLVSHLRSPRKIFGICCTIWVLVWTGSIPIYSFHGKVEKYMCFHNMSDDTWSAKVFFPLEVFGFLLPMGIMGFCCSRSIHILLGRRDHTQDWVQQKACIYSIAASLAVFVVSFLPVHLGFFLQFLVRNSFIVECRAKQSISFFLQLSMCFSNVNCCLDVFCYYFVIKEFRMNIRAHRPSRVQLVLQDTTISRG
T1 sequence (P51452 whole entry): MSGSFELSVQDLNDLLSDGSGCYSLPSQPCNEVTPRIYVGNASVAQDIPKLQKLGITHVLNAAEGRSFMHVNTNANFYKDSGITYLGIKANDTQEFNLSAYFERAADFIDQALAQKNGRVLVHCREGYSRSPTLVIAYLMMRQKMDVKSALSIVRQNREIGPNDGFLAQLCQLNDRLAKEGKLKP
T3 sequence (P63165 whole entry): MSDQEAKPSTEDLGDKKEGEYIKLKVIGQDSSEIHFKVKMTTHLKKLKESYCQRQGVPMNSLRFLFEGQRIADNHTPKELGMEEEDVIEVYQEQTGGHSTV
T11 sequence (P41143 whole entry): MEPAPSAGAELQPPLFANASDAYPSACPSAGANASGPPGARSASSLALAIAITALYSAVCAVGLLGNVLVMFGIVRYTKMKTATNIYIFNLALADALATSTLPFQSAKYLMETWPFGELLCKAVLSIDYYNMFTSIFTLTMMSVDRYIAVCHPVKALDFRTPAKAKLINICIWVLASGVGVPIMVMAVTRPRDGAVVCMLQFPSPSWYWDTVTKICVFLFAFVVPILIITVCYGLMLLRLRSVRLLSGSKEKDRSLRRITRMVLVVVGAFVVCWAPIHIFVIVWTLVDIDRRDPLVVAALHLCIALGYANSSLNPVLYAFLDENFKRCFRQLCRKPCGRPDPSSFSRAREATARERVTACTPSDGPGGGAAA
T6 sequence (P21554 whole entry): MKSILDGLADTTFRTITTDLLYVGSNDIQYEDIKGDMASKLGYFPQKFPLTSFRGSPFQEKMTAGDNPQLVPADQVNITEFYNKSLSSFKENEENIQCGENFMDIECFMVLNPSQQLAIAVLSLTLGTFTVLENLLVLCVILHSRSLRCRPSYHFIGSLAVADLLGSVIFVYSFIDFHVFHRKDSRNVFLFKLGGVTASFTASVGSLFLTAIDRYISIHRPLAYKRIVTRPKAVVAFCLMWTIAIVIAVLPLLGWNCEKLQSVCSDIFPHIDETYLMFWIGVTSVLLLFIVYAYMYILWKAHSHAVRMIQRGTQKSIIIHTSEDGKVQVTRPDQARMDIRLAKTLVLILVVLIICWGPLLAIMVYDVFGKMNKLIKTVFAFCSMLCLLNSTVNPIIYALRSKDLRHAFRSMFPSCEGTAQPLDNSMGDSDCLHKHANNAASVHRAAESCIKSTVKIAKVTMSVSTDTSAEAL
T8 sequence (P34972 whole entry): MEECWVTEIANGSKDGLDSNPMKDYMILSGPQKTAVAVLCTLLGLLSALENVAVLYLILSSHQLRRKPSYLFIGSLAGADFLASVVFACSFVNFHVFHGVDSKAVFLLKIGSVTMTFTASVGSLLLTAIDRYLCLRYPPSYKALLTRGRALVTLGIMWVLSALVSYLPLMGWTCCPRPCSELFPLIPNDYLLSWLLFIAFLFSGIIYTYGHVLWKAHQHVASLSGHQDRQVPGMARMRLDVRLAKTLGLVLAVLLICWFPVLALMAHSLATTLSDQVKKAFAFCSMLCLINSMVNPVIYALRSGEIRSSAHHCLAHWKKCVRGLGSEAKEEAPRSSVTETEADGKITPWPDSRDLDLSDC
T7 sequence (Q9HC97 whole entry): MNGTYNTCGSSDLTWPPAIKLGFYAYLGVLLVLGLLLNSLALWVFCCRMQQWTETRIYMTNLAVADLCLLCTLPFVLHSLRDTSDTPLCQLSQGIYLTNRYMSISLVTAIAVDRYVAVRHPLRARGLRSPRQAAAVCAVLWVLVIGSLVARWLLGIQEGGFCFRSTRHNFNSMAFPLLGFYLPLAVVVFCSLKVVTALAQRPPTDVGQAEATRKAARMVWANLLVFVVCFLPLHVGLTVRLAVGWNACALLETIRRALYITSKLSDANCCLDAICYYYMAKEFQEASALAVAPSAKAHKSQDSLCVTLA
Chain of Sphingosine 1-phosphate receptor 4 (O95977 whole entry): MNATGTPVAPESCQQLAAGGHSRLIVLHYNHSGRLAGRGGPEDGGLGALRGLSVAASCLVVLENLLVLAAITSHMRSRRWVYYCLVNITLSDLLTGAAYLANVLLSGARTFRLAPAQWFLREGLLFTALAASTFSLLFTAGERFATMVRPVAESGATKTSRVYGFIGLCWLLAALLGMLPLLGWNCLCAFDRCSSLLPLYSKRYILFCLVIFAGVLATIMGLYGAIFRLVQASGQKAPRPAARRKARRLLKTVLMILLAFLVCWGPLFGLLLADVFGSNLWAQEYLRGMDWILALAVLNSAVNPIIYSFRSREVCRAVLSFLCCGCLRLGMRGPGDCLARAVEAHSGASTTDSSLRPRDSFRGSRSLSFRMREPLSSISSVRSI
Chain of Sphingosine 1-phosphate receptor 1 (P21453 whole entry): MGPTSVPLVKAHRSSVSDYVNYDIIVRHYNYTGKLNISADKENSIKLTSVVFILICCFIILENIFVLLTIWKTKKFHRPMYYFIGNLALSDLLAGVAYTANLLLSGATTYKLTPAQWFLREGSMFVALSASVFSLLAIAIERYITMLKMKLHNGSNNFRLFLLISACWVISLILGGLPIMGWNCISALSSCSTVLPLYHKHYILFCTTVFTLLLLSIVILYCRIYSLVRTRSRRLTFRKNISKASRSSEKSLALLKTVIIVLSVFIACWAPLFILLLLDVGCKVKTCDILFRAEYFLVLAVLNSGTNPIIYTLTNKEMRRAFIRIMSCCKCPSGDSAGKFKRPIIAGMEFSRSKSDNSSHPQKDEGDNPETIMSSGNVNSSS
Chain of Dual specificity protein phosphatase 6 (Q64346 whole entry): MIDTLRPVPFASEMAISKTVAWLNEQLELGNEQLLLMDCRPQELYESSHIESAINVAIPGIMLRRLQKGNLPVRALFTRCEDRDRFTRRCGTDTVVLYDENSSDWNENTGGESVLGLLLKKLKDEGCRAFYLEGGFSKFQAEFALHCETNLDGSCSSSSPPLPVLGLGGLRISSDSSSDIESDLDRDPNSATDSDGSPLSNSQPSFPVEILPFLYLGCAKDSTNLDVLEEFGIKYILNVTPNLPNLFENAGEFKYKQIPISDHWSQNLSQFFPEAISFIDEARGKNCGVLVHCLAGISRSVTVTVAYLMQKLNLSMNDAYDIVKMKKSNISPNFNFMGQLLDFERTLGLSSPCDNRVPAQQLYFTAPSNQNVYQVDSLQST
Chain of Tumor necrosis factor (P01375 whole entry, the tested form may be a part): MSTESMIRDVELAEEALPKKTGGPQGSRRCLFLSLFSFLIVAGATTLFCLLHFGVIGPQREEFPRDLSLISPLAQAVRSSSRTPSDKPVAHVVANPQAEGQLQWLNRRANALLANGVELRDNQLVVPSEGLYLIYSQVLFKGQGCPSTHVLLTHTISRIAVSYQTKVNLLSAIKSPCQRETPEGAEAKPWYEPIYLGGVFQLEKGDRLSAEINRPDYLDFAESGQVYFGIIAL
Chain of Eukaryotic translation initiation factor 4E (P63073 whole entry): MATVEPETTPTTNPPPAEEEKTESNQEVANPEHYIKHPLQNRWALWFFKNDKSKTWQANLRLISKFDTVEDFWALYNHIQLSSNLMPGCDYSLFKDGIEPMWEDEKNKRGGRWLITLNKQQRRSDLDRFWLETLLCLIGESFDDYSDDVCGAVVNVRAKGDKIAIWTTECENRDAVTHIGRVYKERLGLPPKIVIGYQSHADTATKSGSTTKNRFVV

On to `O=C(CSc1nc(-c2ccc(F)cc2)nc2c1Cc1ccccc1O2)Nc1ccc(C(=O)O)cc1`, for which the IC50 is 5.02 µM (active) in test [1]; 4.04 µM (active) in test [2]; > 50 µM (not active) in [3]; 10.1 µM (active) in test [4]; 23 µM (active) in test [5]; 50 µM (inactive) in [6]. In addition, the IC50 in test [7] was > 66.6 µM (inactive); in test [8], 3.36 µM (active).

For `Clc1ccc(CSc2nnc(-c3ccncc3)n2Cc2ccco2)cc1Cl`, in test [9], the EC50 is > 20 µM (inactive).

Consider `Cc1[nH]nc(-c2ccc(O)cc2O)c1-c1ccc(Cl)cc1`, for which the IC50 in test [10] was 3.44 µM (active); on Cannabinoid receptor 1 [11], > 32 µM (inactive); at Cannabinoid receptor 2 [13], > 32 µM (inactive); in [16] it was > 32 µM (inactive); in test [17] it was 2.05 µM (active). Besides, the EC50 in test [12] was > 32 µM (inactive); in [14], 5.31 µM (active); on Cannabinoid receptor 1 [15], > 32 µM (inactive); at Cannabinoid receptor 2 [18] it was > 32 µM (inactive).

Consider `O=C(c1ccccn1)N(Cc1ccco1)C1(C(=O)Nc2ccc(Br)cc2)CCCCC1`, for which the EC50 in test [19] was 0.423 µM (active); on Mu-type opioid receptor [20] it was > 32 µM (inactive); in test [21], > 32 µM (inactive); in [24] it was 0.0983 µM (active). Also, the IC50 (in test [22]; on Mu-type opioid receptor [23]; in test [25]) was > 32 µM (inactive) in each case.

On to `COCCn1c(C)cc(C(=O)COC(=O)c2cccc(O)c2)c1C`, for which the EC50 in [26] is < 0.1 µM (active); in [27], 0.121 µM (active); in [28], 0.137 µM (active). The IC50 at Tumor necrosis factor is 0.704 µM (active); in test [29] it was 2.5 µM (active); in the test on HEK293 it was > 20 µM (inactive).

For the compound `N#Cc1cc2c(=O)n3ccccc3nc2n(-c2ccccc2Cl)c1=O`, the EC50 in [26] was > 120 µM (not active); in test [30], 10.4 µM (inactive); in [27] it was > 120 µM (not active); in test [28], 11 µM (active); in test [31], 2.88 µM (active).
